# Measurements reported in ChEMBL document CHEMBL5244255, “An insight on medicinal attributes of 1,2,4-triazoles” (Eur J Med Chem, 2020).
# Legend:
# Cytomegalovirus [1] = experiment: Antiviral activity against Cytomegalovirus infected in HFF cells […]; type: functional, organism-based; settings: Human betaherpesvirus 5, HFF
# Cytomegalovirus [2] = experiment: Potency index, ratio of ganciclovir IC50 to test compound IC50 for antiviral activity against Cytomegalovirus; type: functional
# MDA-MB-231 = experiment: Antiproliferative activity against human MDA-MB-231 cells assessed as cell growth inhibition by MTT assay; type: functional, cell-based
# K562 = experiment: Antiproliferative activity against human K562 cells assessed as cell growth inhibition by MTT assay; type: functional, cell-based
# A549 [3] = experiment: Antiproliferative activity against human A549 cells assessed as cell growth inhibition by MTT assay; type: functional, cell-based
# Human alphaherpesvirus 1 [4] = experiment: Antiviral activity against Human alphaherpesvirus 1 infected in African green monkey Vero kidney cells assessed as plaque reduction at 80 uM relative to control; type: functional; design: scale not given: the % may be the effect or the level left
# MCF7 [5] = experiment: Anticancer activity against human MCF7 cells assessed as cell growth inhibition incubated for 24 hrs by MTT assay; type: functional, cell-based; settings: MCF7, 24 h
# HCT-116 [6] = experiment: Anticancer activity against human HCT-116 cells assessed as cell growth inhibition incubated for 24 hrs by MTT assay; type: functional, cell-based; settings: HCT-116, 24 h
# PC-3 [7] = experiment: Anticancer activity against human PC-3 cells assessed as cell growth inhibition incubated for 24 hrs by MTT assay; type: functional, cell-based; settings: PC-3, 24 h
# A549 [8] = experiment: Anticancer activity against human A549 cells assessed as cell growth inhibition incubated for 24 hrs by MTT assay; type: functional, cell-based; settings: A549, 24 h
# MCF7 [9] = experiment: Antiproliferative activity against human MCF7 cells assessed as cell viability incubated for 48 hrs by MTT assay; type: functional, cell-based; settings: MCF7, 48 h
# SMMC-7721 = experiment: Anticancer activity against human SMMC-7721 cells assessed as cell growth inhibition incubated for 48 hrs by CCK8 assay; type: functional, cell-based; settings: SMMC-7721, 48 h
# Trypanosoma brucei = experiment: […] activity against Trypanosoma brucei assessed as […] growth inhibition; type: functional, organism-based
# Leishmania infantum = experiment: Antileishmanial activity against Leishmania infantum measured after 20 mins; type: functional
# [10] = target: Hepatocyte growth factor receptor (Homo sapiens, UniProt P08581); experiment: Inhibition of c-Met (unknown origin) incubated for 1 hrs in presence of ATP by ELISA assay
# Sequence of Hepatocyte growth factor receptor (P08581 whole entry): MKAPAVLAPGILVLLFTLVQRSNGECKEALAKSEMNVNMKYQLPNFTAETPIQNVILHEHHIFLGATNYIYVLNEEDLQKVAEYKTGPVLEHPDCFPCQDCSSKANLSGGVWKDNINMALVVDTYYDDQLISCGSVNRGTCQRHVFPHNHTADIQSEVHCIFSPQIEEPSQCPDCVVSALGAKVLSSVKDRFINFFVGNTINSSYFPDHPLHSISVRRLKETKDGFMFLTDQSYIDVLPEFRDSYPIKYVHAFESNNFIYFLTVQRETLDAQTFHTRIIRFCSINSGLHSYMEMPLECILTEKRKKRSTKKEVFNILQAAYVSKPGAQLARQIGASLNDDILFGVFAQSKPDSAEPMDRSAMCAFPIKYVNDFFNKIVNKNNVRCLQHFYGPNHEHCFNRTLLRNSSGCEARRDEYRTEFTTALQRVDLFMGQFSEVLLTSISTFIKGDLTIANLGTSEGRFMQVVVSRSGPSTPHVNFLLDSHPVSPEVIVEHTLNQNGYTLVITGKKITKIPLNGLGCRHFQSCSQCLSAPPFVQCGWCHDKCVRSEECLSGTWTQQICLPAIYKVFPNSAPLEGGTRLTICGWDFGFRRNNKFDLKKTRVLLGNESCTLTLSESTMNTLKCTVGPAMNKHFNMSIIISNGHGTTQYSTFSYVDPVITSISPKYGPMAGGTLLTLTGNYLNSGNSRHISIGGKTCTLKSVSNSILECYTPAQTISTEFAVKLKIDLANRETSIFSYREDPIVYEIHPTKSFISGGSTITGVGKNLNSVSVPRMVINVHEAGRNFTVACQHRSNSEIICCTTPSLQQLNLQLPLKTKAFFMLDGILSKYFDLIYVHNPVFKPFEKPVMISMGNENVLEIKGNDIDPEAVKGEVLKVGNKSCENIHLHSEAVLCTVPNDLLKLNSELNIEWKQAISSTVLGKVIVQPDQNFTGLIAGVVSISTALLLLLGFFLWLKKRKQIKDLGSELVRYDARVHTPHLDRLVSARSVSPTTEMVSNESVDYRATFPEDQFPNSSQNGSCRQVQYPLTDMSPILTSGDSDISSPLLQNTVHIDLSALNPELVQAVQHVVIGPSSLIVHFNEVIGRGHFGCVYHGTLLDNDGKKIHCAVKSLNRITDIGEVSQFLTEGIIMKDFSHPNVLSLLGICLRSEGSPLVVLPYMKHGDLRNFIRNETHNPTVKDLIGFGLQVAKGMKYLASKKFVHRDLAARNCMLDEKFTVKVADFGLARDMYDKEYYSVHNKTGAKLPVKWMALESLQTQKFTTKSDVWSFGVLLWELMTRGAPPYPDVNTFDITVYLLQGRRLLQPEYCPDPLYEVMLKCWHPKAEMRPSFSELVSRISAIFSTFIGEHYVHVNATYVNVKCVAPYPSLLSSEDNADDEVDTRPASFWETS
# [11] = target: T1, Vascular endothelial growth factor receptor 2 (Homo sapiens, UniProt P35968); experiment: Inhibition of human VEGFR2 (unknown origin) incubated for 1 hrs in presence of ATP by ELISA assay
# T1 sequence (P35968 whole entry): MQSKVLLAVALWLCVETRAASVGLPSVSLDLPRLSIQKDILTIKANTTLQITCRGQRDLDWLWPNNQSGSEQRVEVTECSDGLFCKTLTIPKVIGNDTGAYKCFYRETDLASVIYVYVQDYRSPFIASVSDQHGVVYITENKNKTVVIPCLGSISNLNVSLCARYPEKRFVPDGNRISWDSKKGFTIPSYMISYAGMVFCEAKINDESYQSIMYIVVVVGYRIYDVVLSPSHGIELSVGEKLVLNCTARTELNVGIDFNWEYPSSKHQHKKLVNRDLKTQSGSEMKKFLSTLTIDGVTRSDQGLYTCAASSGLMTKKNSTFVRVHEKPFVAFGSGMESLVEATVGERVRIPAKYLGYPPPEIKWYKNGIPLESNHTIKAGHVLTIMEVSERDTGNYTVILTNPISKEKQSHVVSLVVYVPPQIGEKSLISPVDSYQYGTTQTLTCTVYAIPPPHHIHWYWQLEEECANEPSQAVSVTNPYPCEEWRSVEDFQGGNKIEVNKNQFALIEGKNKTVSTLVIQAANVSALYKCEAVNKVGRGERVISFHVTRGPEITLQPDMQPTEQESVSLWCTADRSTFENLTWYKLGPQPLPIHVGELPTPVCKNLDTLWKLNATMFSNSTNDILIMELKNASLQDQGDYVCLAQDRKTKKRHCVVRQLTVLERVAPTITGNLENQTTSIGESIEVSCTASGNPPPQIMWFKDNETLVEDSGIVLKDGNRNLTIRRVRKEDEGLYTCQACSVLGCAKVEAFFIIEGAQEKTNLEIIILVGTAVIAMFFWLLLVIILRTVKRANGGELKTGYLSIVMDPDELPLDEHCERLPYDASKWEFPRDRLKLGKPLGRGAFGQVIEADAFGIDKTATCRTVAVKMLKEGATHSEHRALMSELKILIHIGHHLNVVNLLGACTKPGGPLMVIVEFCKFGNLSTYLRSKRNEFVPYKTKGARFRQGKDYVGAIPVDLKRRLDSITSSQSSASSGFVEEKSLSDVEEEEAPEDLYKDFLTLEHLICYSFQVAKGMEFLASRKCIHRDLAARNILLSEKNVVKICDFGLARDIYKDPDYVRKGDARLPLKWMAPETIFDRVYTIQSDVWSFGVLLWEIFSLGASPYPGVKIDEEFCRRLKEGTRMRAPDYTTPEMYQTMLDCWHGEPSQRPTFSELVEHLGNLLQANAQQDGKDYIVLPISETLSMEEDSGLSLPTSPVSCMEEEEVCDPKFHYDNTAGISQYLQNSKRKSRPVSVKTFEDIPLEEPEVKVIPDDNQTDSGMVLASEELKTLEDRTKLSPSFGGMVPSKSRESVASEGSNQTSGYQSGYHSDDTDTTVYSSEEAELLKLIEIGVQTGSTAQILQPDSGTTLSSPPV
# HepG2 = experiment: Antiproliferative activity against human HepG2 cells assessed as cell viability incubated for 72 hrs by MTT assay; type: functional, cell-based; settings: HepG2, 72 h
# Rattus norvegicus [12] = experiment: Antiinflammatory activity in rat assessed as reduction in edema at 5 to 20 mg/kg, po measured after 5 hrs relative to control; type: functional; design: scale not given: the % may be the effect or the level left; settings: dose 5-20 mg/kg
# U-251 = experiment: Anticancer activity against human U-251 cells assessed as cell growth inhibition incubated for 48 hrs by SRB assay; type: functional
# NCI-H460 = experiment: Anticancer activity against human NCI-H460 cells assessed as cell growth inhibition incubated for 48 hrs by SRB assay; type: functional
# HOP-92 = experiment: Anticancer activity against human HOP-92 cells assessed as cell growth inhibition incubated for 48 hrs by SRB assay; type: functional
# LOX IMVI = experiment: Anticancer activity against human LOX IMVI cells assessed as cell growth inhibition incubated for 48 hrs by SRB assay; type: functional
# HCT-116 [13] = experiment: Anticancer activity against human HCT-116 cells assessed as cell growth inhibition incubated for 48 hrs by SRB assay; type: functional
# A498 = experiment: Anticancer activity against human A498 cells assessed as cell growth inhibition incubated for 48 hrs by SRB assay; type: functional
# [14] = system: Japanese encephalitis virus; experiment: Antiviral activity against Japanese encephalitis virus; type: functional; settings: read-out: ED50 (the source's name)
# Human alphaherpesvirus 1 [15] = experiment: Antiviral activity against Human alphaherpesvirus 1 assessed as plaque reduction at […] relative to control; type: functional; design: dose or concentration left out as unconfirmed
# Rattus norvegicus [16] = experiment: Antiinflammatory activity in rat assessed as reduction in xylene induced edema relative to control; type: functional; design: scale not given: the % may be the effect or the level left
# PC-3 [17] = experiment: Anticancer activity against human PC-3 cells assessed as cell growth inhibition; type: functional, cell-based
# [18] = Inhibition of Mycobacterium tuberculosis Shikimate dehydrogenase […]; type: functional
# [19] = Oral bioavailability in mouse relative to control; type: ADME, organism-based; settings: in vivo
# [20] = Inhibition of Plasmodium falciparum dihydrofolate reductase
# HCT-116 [21] = experiment: Antiproliferative activity against human HCT-116 cells assessed as cell viability incubated for 48 hrs by MTT assay; settings: HCT-116, 48 h
# Mus musculus [22] = experiment: Anticonvulsant activity in ip dosed mouse assessed as protection against PTZ-induced seizure; type: functional
# Mus musculus [23] = experiment: Anticonvulsant activity in ip dosed mouse assessed as MES-induced seizures; type: functional
# [24] = Protection index, ratio of TD50 for neurotoxicity in ip dosed mouse to ED50 for anticonvulsant activity in ip dosed mouse; type: toxicity, organism-based; settings: in vivo, read-out: Ratio TD50/ED50
# MCF7 [25] = experiment: Anticancer activity against human MCF7 cells assessed a cell growth inhibition incubated for 48 hrs by SRB assay; type: functional, cell-based; settings: MCF7, 48 h
# [26] = target: T1, Vascular endothelial growth factor receptor 2; experiment: Inhibition of human VEGFR2 using biotinylated poly-GluTyr as substrate at 117 ng/ml incubated for 24 hrs in presence of ATP by ELISA assay relative to control
# A549 [27] = experiment: Anticancer activity against human A549 cells assessed as cell growth inhibition incubated for 48 hrs by CCK8 assay; type: functional, cell-based; settings: A549, 48 h
# Mus musculus [28] = experiment: Anticonvulsant activity in ip dosed mouse assessed as neurotoxicity measured after 15 mins; type: functional; settings: 0.25 h
# Cytomegalovirus [29] = experiment: Potency index, ratio of test compound IC50 to ganciclovir IC50 for antiviral activity against Cytomegalovirus; type: functional
# [30] = target: Bifunctional dihydrofolate reductase-thymidylate synthase (Plasmodium vivax, UniProt O02604); experiment: Inhibition of Plasmodium vivax dihydrofolate reductase measured after 48 hrs
# Sequence of Bifunctional dihydrofolate reductase-thymidylate synthase (O02604 whole entry): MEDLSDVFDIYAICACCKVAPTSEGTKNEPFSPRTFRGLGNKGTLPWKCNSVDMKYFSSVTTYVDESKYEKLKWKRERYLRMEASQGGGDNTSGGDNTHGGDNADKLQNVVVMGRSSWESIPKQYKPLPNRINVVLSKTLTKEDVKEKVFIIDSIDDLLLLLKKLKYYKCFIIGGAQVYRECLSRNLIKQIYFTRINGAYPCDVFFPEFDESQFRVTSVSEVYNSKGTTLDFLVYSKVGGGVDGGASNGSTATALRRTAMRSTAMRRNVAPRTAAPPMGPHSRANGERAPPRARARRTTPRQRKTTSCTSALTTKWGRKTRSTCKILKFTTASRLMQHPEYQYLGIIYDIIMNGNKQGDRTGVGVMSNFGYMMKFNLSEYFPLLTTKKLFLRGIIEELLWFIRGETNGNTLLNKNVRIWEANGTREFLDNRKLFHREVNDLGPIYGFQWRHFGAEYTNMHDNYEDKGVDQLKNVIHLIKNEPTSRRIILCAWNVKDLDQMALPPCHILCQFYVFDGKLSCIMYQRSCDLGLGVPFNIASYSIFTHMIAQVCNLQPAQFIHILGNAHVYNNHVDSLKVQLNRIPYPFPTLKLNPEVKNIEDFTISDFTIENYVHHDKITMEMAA
# [31] = Inhibition of Plasmodium falciparum dihydrofolate reductase measured after 48 hrs
# DU-145 [32] = experiment: Anticancer activity against human DU-145 cells assessed as cell growth inhibition incubated for 24 hrs by MTS assay; type: functional, cell-based; settings: DU-145, 24 h
# LNCaP = experiment: Anticancer activity against human LNCaP cells assessed as cell growth inhibition incubated for 24 hrs by MTS assay; type: functional, cell-based
# PC-3 [33] = experiment: Anticancer activity against human PC-3 cells assessed as cell growth inhibition incubated for 24 hrs by MTS assay; type: functional, cell-based; settings: PC-3, 24 h
# BT-20 [34] = experiment: Anticancer activity against human BT-20 cells assessed as cell growth inhibition incubated for 48 hrs by MTT assay; type: functional, cell-based; settings: BT-20, 48 h
# HeLa = experiment: Antiproliferative activity against human HeLa cells assessed as cell growth inhibition by MTT assay; type: functional, cell-based
# [35] = Anticancer activity against human SK-MEL-128 cells assessed as cell growth inhibition incubated for 48 hrs by MTT assay; type: functional, cell-based; settings: SK-MEL-128, 48 h
# DU-145 [36] = experiment: Anticancer activity against human DU-145 cells assessed as cell growth inhibition incubated for 48 hrs by MTT assay; type: functional, cell-based; settings: DU-145, 48 h
# A549 [37] = experiment: Anticancer activity against human A549 cells assessed as cell growth inhibition incubated for 48 hrs by MTT assay; type: functional, cell-based; settings: A549, 48 h
# BT-20 [38] = experiment: Potency index, ratio of test compound IC50 to cisplatin IC50 for antiproliferative against human BT-20 cells; type: functional
smiles,measurement,setting,value
Nc1nc2c(ncn2COC(CO)CO)c(=O)[nH]1 [GANCICLOVIR],IC50,Cytomegalovirus [1],0.59 µM
same,Ratio IC50,Cytomegalovirus [2],>256
Cc1nn(-c2ccc(Br)cc2)c(=O)n1-n1c(-c2cc3ccccc3oc2=O)cs/c1=N\c1ccc(Cl)cc1,IC50,MDA-MB-231,0.16 µg/mL
same,IC50,K562,0.16 µg/mL
same,IC50,A549 [3],0.16 µg/mL
CCOC(=O)CSc1nc2n(n1)C(=O)C(CCCl)C(C)N2 (stereo not drawn),Activity,Human alphaherpesvirus 1 [4],50%
CC1CNCC(C)N1c1ccc(Nc2nccc(N3CCn4c(nnc4-c4ccc(F)c(Cl)c4)C3)n2)cc1 (stereo not drawn),IC50,MCF7 [5],3.69 µM
same,IC50,HCT-116 [6],3.59 µM
same,IC50,PC-3 [7],5.52 µM
same,IC50,A549 [8],2.14 µM
O=C(O)c1ccc(-n2nc(Oc3ccccc3)nc2NC(=S)NC(=O)c2ccccc2)cc1,IC50,MCF7 [9],23.9 µM
CC(C)SSc1nnc(-c2ccccc2)n1N,IC50,SMMC-7721,2.97 µM
Cc1nc(C)c(C(=O)Nc2ccc(F)c(-c3nc4ncc(C(C)(C)C)cn4n3)c2)o1,EC50,Trypanosoma brucei,0.03 µM
Nn1c(S)nnc1Cn1nc(Cc2cccs2)n(N)c1=O,MIC,Leishmania infantum,625 µg/mL
Cc1c(C(=O)Nc2ccc(Oc3ccnc(-c4nncn4CN4CCN(C)CC4)c3)c(F)c2)c(=O)n(-c2ccccc2)n1C,IC50,[10],0.11 µM
same,IC50,[11],0.19 µM
CCc1nnc2c(Nc3ccc(C(=O)/C=C/c4cc(OC)c(OC)c(OC)c4)cc3)nc3ccccc3n12,IC50,HepG2,8.58 µM
O=C(CSc1nncn1CC(=O)N/N=C/c1ccc(O)cc1)N/N=C/c1ccc(O)cc1,Activity,Rattus norvegicus [12],64.44%
Clc1ccccc1-c1nnc2c(Cc3ccccc3)nc3ccccc3n12,GI50,U-251,1.96 µM
same,GI50,NCI-H460,3.45 µM
same,GI50,HOP-92,3.91 µM
same,GI50,LOX IMVI,5.18 µM
same,GI50,HCT-116 [13],3.49 µM
same,GI50,A498,1.8 µM
CN1C(=O)c2ccccc2N(c2cccc(-c3nnc4n3NC(c3ccccc3)=C(c3ccccc3)S4)c2)C1c1ccccc1 (stereo not drawn),EC50,[14],7.8 µg/mL
Cc1ccc2nc(Cl)c3nnc(NC(=S)Nc4ccccc4)n3c2c1,Activity,Human alphaherpesvirus 1 [15],25%
O=c1c2sccc2n2cnnc2n1-c1ccc(Cl)cc1,Activity,Rattus norvegicus [16],50.48%
O=C(CSc1nnc2n(Cc3ccccc3)c(=O)c3c4c(sc3n12)CCCC4)N1CCN(c2ccccc2)CC1,IC50,PC-3 [17],5.48 µM
COc1ccc(OCc2nn3c(-c4ccc(Br)cc4)nnc3s2)cc1,log(activity),[18],1.7
same,bioavailability,[19],14%
CC1=C(C(=O)Nc2ccc(Br)cn2)C(c2cn(-c3ccccc3)nc2-c2ccc(Cl)cc2)n2ncnc2N1 (stereo not drawn),IC50,[20],0.023 µg/mL
CSc1nc(NC(=S)NCc2ccccc2)n(-c2ccc(C(=O)O)cc2)n1,IC50,HCT-116 [21],15.6 µM
Fc1ccc(-c2csc3nncn23)cc1,ED50,Mus musculus [22],49.1 mg/kg
same,ED50,Mus musculus [23],49.1 mg/kg
same,selectivity ratio,[24],1.7
O=c1nc2c3c(ncn2[nH]1)Oc1c(c(=O)oc2ccccc12)C3c1ccc(F)cc1 (stereo not drawn),IC50,MCF7 [25],7.9 µg/mL
same,inhibition,[26],94%
CCCCSSc1nnc(-c2ccccc2)n1N,IC50,A549 [27],2.79 µM
Fc1ccc(-n2c(-c3cccc(Cl)c3)n[nH]c2=S)cc1,TD50,Mus musculus [28],137 mg/kg
same,selectivity ratio,[24],3.9
Cc1cc2nc(Cc3nncn3-c3ccccn3)c(=O)[nH]c2cc1C,IC50,Cytomegalovirus [1],< 0.05 µM
same,Ratio IC50,Cytomegalovirus [29],>3000
CC1=NC2NC(CC(F)(F)F)=NN2C(Nc2ccc(C(F)(F)F)nc2)=C1 (stereo not drawn),IC50,[30],0.094 µM
same,IC50,[31],0.053 µM
COc1ccc2cc(C(C)c3nnc(SCC(=O)N/N=C/c4cc([N+](=O)[O-])ccc4-c4ccco4)n3-c3ccc(F)cc3)ccc2c1 (stereo not drawn),IC50,DU-145 [32],34.5 µM
same,IC50,LNCaP,48.8 µM
same,IC50,PC-3 [33],26 µM
CCN(CC)c1ccc2cc(C(=O)NNC(=O)Cn3nc(Cc4cccc(Br)c4)n(N)c3=O)c(=O)oc2c1,IC50,BT-20 [34],3.1 µg/mL
same,IC50,HeLa,0.16 µg/mL
same,IC50,[35],3.1 µg/mL
same,IC50,DU-145 [36],3.1 µg/mL
same,IC50,A549 [37],3.1 µg/mL
same,Ratio IC50,BT-20 [38],2.7
